From patent US7238689B2, “Isoxazoline derivative and herbicide comprising the same as active ingredient” (Ihara Chemical Industry Co., Ltd., priority 2001, dated 2007)

test system: Echinochloa crus-galli (L.) Beauv. var. crus-galli; assay: Herbicidal effect by upland foliage treatment; type: in vivo; parameters: scale not given here; details: active ingredient 1000 g/ha, examined at 14th day from treatment
Experimental: (§1) A sand was filled in a plastic pot of 80 cm^2. Seeds of Echinochloa crus-galli (L.) Beauv. var. crus-galli and Setaria viridis (L.) Beauv. were sowed. Breeding was made in a greenhouse for 2 weeks. Wettable powders produced in accordance with the Formulation 1 were diluted with water and sprayed on the whole foliage of plants from above the plants using a small sprayer in an amount of 1,000 liters per 1 hectare so that the amount of each active ingredient became 1,000 g per 1 hectare. Then, breeding was made in the greenhouse, and the herbicidal effect of each wettable powder was examined at the 14th day from the treatment in accordance with the standard shown in Table 21.

| SMILES | herbicidal effect (index per standard of Table 21), Echinochloa curs-galli (L.) Beauv. Var. crus-galli |
| --- | --- |
| Cn1nc(C(F)(F)F)c(CS(=O)(=O)C2=NOC(C)(C)C2)c1Cl [3-0039] | 5 |
| CCC(C)n1nc(C(F)(F)F)c(CS(=O)(=O)C2=NOC(C)(C)C2)c1Cl (stereo not drawn) [3-0081] | 4 |
| CCOc1c(CS(=O)(=O)C2=NOC(C)(C)C2)c(C(F)(F)F)nn1C [3-0044] | 5 |
| COCn1nc(C(F)(F)F)c(CS(=O)(=O)C2=NOC(C)(C)C2)c1Cl [3-0118] | 5 |
| CC(=O)CCn1nc(C(F)(F)F)c(CS(=O)(=O)C2=NOC(C)(C)C2)c1Cl [3-0144] | 5 |
| CCCCn1nc(Cl)c(CS(=O)(=O)C2=NOC(C)(C)C2)c1C(F)(F)F [3-0086] | 4 |
| CC1(C)CC(S(=O)(=O)Cc2ccsc2)=NO1 [2-0003] | 5 |
| Cc1cc(CS(=O)(=O)C2=NOC(C)(C)C2)no1 [6-0004] | 5 |
| CCCCn1nc(C(F)(F)F)c(CS(=O)(=O)C2=NOC(C)(C)C2)c1Cl [3-0085] | 4 |
| COc1cscc1CS(=O)(=O)C1=NOC(C)(C)C1 [2-0004] | 5 |
| Cn1ncc(C(F)(F)F)c1CS(=O)(=O)C1=NOC(C)(C)C1 [5-0003] | 5 |
| Cc1noc(C)c1CS(=O)(=O)C1=NOC(C)(C)C1 [4-0005] | 5 |
| CCn1nc(Cl)c(CS(=O)(=O)C2=NOC(C)(C)C2)c1C(F)(F)F [3-0074] | 5 |
| Cn1nc(Cl)c(CS(=O)(=O)C2=NOC(C)(C)C2)c1Cl [3-0038] | 5 |

test system: Setaria viridis (L.) Beauv.; assay: Herbicidal effect by upland foliage treatment; type: in vivo; parameters: scale not given here; details: active ingredient 1000 g/ha, examined at 14th day from treatment
Experimental: as §1

| SMILES | herbicidal effect (index per standard of Table 21), Setaria viridis (L.) Beauv. |
| --- | --- |
| Cn1nc(C(F)(F)F)c(CS(=O)(=O)C2=NOC(C)(C)C2)c1Cl [3-0039] | 5 |
| CCC(C)n1nc(C(F)(F)F)c(CS(=O)(=O)C2=NOC(C)(C)C2)c1Cl (stereo not drawn) [3-0081] | 4 |
| CCOc1c(CS(=O)(=O)C2=NOC(C)(C)C2)c(C(F)(F)F)nn1C [3-0044] | 4 |
| COCn1nc(C(F)(F)F)c(CS(=O)(=O)C2=NOC(C)(C)C2)c1Cl [3-0118] | 4 |
| CC(=O)CCn1nc(C(F)(F)F)c(CS(=O)(=O)C2=NOC(C)(C)C2)c1Cl [3-0144] | 5 |
| CCCCn1nc(Cl)c(CS(=O)(=O)C2=NOC(C)(C)C2)c1C(F)(F)F [3-0086] | 4 |
| CC1(C)CC(S(=O)(=O)Cc2ccsc2)=NO1 [2-0003] | 4 |
| Cc1cc(CS(=O)(=O)C2=NOC(C)(C)C2)no1 [6-0004] | 4 |
| CCCCn1nc(C(F)(F)F)c(CS(=O)(=O)C2=NOC(C)(C)C2)c1Cl [3-0085] | 4 |
| COc1cscc1CS(=O)(=O)C1=NOC(C)(C)C1 [2-0004] | 4 |
| Cn1ncc(C(F)(F)F)c1CS(=O)(=O)C1=NOC(C)(C)C1 [5-0003] | 4 |
| Cc1noc(C)c1CS(=O)(=O)C1=NOC(C)(C)C1 [4-0005] | 4 |
| CCn1nc(Cl)c(CS(=O)(=O)C2=NOC(C)(C)C2)c1C(F)(F)F [3-0074] | 4 |
| Cn1nc(Cl)c(CS(=O)(=O)C2=NOC(C)(C)C2)c1Cl [3-0038] | 5 |

test system: Echinochloa oryzicola Vasing; assay: Herbicidal effect by paddy field soil treatment; type: in vivo; parameters: scale not given here; details: wettable powder, active ingredient 1000 g/ha, examined at the 21st day from the treatment
Summary of the method: (§2)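 Seeds sown in puddled paddy soil under 3 cm of water; the next day wettable powders diluted in water were dropped onto the water surface at 1,000 g active ingredient/ha. Plants grown in a greenhouse, with herbicidal effect scored on day 21 against a rating standard.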

| SMILES | Herbicidal effect index, Echinochloa oryzicola Vasing |
| --- | --- |
| Cn1nc(C(F)(F)F)c(CS(=O)(=O)C2=NOC(C)(C)C2)c1Cl [3-0039] | 5 |
| CCC(C)n1nc(C(F)(F)F)c(CS(=O)(=O)C2=NOC(C)(C)C2)c1Cl (stereo not drawn) [3-0081] | 5 |
| CCOc1c(CS(=O)(=O)C2=NOC(C)(C)C2)c(C(F)(F)F)nn1C [3-0044] | 5 |
| COCn1nc(C(F)(F)F)c(CS(=O)(=O)C2=NOC(C)(C)C2)c1Cl [3-0118] | 5 |
| CC(=O)CCn1nc(C(F)(F)F)c(CS(=O)(=O)C2=NOC(C)(C)C2)c1Cl [3-0144] | 5 |
| CCCCn1nc(Cl)c(CS(=O)(=O)C2=NOC(C)(C)C2)c1C(F)(F)F [3-0086] | 5 |
| CC1(C)CC(S(=O)(=O)Cc2ccsc2)=NO1 [2-0003] | 5 |
| Cc1cc(CS(=O)(=O)C2=NOC(C)(C)C2)no1 [6-0004] | 5 |
| CCCCn1nc(C(F)(F)F)c(CS(=O)(=O)C2=NOC(C)(C)C2)c1Cl [3-0085] | 5 |
| COc1cscc1CS(=O)(=O)C1=NOC(C)(C)C1 [2-0004] | 5 |
| Cn1ncc(C(F)(F)F)c1CS(=O)(=O)C1=NOC(C)(C)C1 [5-0003] | 5 |
| Cc1noc(C)c1CS(=O)(=O)C1=NOC(C)(C)C1 [4-0005] | 5 |
| CCn1nc(Cl)c(CS(=O)(=O)C2=NOC(C)(C)C2)c1C(F)(F)F [3-0074] | 5 |
| Cn1nc(Cl)c(CS(=O)(=O)C2=NOC(C)(C)C2)c1Cl [3-0038] | 5 |

test system: Monochoria vaginalis (Murm. f.) Presl var. plantaginea (Roxb.) Solms-Laub.; assay: Herbicidal effect by paddy field soil treatment; type: in vivo; parameters: scale not given here; details: wettable powder, active ingredient 1000 g/ha, examined at the 21st day from the treatment
Summary of the method: as §2

| SMILES | Herbicidal effect index, Monochoria vaginalis (Burm. F.) Presl var. plantaginea (Roxb.) Solms-Laub. |
| --- | --- |
| Cn1nc(C(F)(F)F)c(CS(=O)(=O)C2=NOC(C)(C)C2)c1Cl [3-0039] | 5 |
| CCC(C)n1nc(C(F)(F)F)c(CS(=O)(=O)C2=NOC(C)(C)C2)c1Cl (stereo not drawn) [3-0081] | 5 |
| CCOc1c(CS(=O)(=O)C2=NOC(C)(C)C2)c(C(F)(F)F)nn1C [3-0044] | 5 |
| COCn1nc(C(F)(F)F)c(CS(=O)(=O)C2=NOC(C)(C)C2)c1Cl [3-0118] | 5 |
| CC(=O)CCn1nc(C(F)(F)F)c(CS(=O)(=O)C2=NOC(C)(C)C2)c1Cl [3-0144] | 5 |
| CCCCn1nc(Cl)c(CS(=O)(=O)C2=NOC(C)(C)C2)c1C(F)(F)F [3-0086] | 5 |
| CC1(C)CC(S(=O)(=O)Cc2ccsc2)=NO1 [2-0003] | 5 |
| Cc1cc(CS(=O)(=O)C2=NOC(C)(C)C2)no1 [6-0004] | 5 |
| CCCCn1nc(C(F)(F)F)c(CS(=O)(=O)C2=NOC(C)(C)C2)c1Cl [3-0085] | 5 |
| COc1cscc1CS(=O)(=O)C1=NOC(C)(C)C1 [2-0004] | 5 |
| Cn1ncc(C(F)(F)F)c1CS(=O)(=O)C1=NOC(C)(C)C1 [5-0003] | 5 |
| Cc1noc(C)c1CS(=O)(=O)C1=NOC(C)(C)C1 [4-0005] | 5 |
| CCn1nc(Cl)c(CS(=O)(=O)C2=NOC(C)(C)C2)c1C(F)(F)F [3-0074] | 5 |
| Cn1nc(Cl)c(CS(=O)(=O)C2=NOC(C)(C)C2)c1Cl [3-0038] | 5 |

test system: Echinochloa crus-galli (L.) Beauv. var. crusgalli; assay: Herbicidal effect by upland field soil treatment; type: in vivo; parameters: scale not given here; details: active ingredient 1000 g/ha, examined at 21st day from treatment
From the text: (§3) An upland field soil was filled in a plastic pot of 80 cm^2. Seeds of Echinochloa crus-galli (L.) Beauv. var. crusgalli and Setaria viridis (L.) Beauv. were sowed, followed by covering with the same soil. […] Then, breeding was made in a greenhouse, and the herbicidal effect of each wettable powder was examined at the 21st day from the treatment in accordance with the standard shown in Table 21.

| SMILES | herbicidal effect (index per standard of Table 21), Echinochloa curs-galli (L.) Beauv. Var. crus-galli |
| --- | --- |
| Cn1nc(C(F)(F)F)c(CS(=O)(=O)C2=NOC(C)(C)C2)c1Cl [3-0039] | 5 |
| CCC(C)n1nc(C(F)(F)F)c(CS(=O)(=O)C2=NOC(C)(C)C2)c1Cl (stereo not drawn) [3-0081] | 5 |
| CCOc1c(CS(=O)(=O)C2=NOC(C)(C)C2)c(C(F)(F)F)nn1C [3-0044] | 5 |
| COCn1nc(C(F)(F)F)c(CS(=O)(=O)C2=NOC(C)(C)C2)c1Cl [3-0118] | 5 |
| CC(=O)CCn1nc(C(F)(F)F)c(CS(=O)(=O)C2=NOC(C)(C)C2)c1Cl [3-0144] | 5 |
| CCCCn1nc(Cl)c(CS(=O)(=O)C2=NOC(C)(C)C2)c1C(F)(F)F [3-0086] | 5 |
| CC1(C)CC(S(=O)(=O)Cc2ccsc2)=NO1 [2-0003] | 5 |
| Cc1cc(CS(=O)(=O)C2=NOC(C)(C)C2)no1 [6-0004] | 5 |
| CCCCn1nc(C(F)(F)F)c(CS(=O)(=O)C2=NOC(C)(C)C2)c1Cl [3-0085] | 5 |
| COc1cscc1CS(=O)(=O)C1=NOC(C)(C)C1 [2-0004] | 5 |
| Cn1ncc(C(F)(F)F)c1CS(=O)(=O)C1=NOC(C)(C)C1 [5-0003] | 5 |
| Cc1noc(C)c1CS(=O)(=O)C1=NOC(C)(C)C1 [4-0005] | 5 |
| CCn1nc(Cl)c(CS(=O)(=O)C2=NOC(C)(C)C2)c1C(F)(F)F [3-0074] | 5 |
| Cn1nc(Cl)c(CS(=O)(=O)C2=NOC(C)(C)C2)c1Cl [3-0038] | 5 |

test system: Setaria viridis (L.) Beauv.; assay: Herbicidal effect by upland field soil treatment; type: in vivo; parameters: scale not given here; details: active ingredient 1000 g/ha, examined at 21st day from treatment
From the text: as §3

| SMILES | herbicidal effect (index per standard of Table 21), Setaria viridis (L.) Beauv. |
| --- | --- |
| Cn1nc(C(F)(F)F)c(CS(=O)(=O)C2=NOC(C)(C)C2)c1Cl [3-0039] | 5 |
| CCC(C)n1nc(C(F)(F)F)c(CS(=O)(=O)C2=NOC(C)(C)C2)c1Cl (stereo not drawn) [3-0081] | 5 |
| CCOc1c(CS(=O)(=O)C2=NOC(C)(C)C2)c(C(F)(F)F)nn1C [3-0044] | 5 |
| COCn1nc(C(F)(F)F)c(CS(=O)(=O)C2=NOC(C)(C)C2)c1Cl [3-0118] | 5 |
| CC(=O)CCn1nc(C(F)(F)F)c(CS(=O)(=O)C2=NOC(C)(C)C2)c1Cl [3-0144] | 5 |
| CCCCn1nc(Cl)c(CS(=O)(=O)C2=NOC(C)(C)C2)c1C(F)(F)F [3-0086] | 5 |
| CC1(C)CC(S(=O)(=O)Cc2ccsc2)=NO1 [2-0003] | 5 |
| Cc1cc(CS(=O)(=O)C2=NOC(C)(C)C2)no1 [6-0004] | 5 |
| CCCCn1nc(C(F)(F)F)c(CS(=O)(=O)C2=NOC(C)(C)C2)c1Cl [3-0085] | 5 |
| COc1cscc1CS(=O)(=O)C1=NOC(C)(C)C1 [2-0004] | 5 |
| Cn1ncc(C(F)(F)F)c1CS(=O)(=O)C1=NOC(C)(C)C1 [5-0003] | 5 |
| Cc1noc(C)c1CS(=O)(=O)C1=NOC(C)(C)C1 [4-0005] | 5 |
| CCn1nc(Cl)c(CS(=O)(=O)C2=NOC(C)(C)C2)c1C(F)(F)F [3-0074] | 5 |
| Cn1nc(Cl)c(CS(=O)(=O)C2=NOC(C)(C)C2)c1Cl [3-0038] | 5 |
